# Source: patent US12539292B2, “BRM targeting compounds and associated methods of use” (Arvinas Operations, Inc., priority 2018, dated 2026)
# Molecular target: T1, BRM (Homo sapiens, UniProt P51531)
# T1 construct: In-Cell Western Screen of BRM Degradation in SW1573 Cells; endogenous in cells; host or cells: SW1573
# Assay: In-cell Western screen of BRM degradation in SW1573 cells (Dmax and DC50)
# Type: cell-based
# Conditions: BRM degradation, SW1573 cells; for DC50: read-out: DC50; for Dmax: when tested at the top concentration of between 0.3 and 10 μM, read-out: Dmax (%) (% degraded)
# In short: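 SW1573 cells were treated with compound overnight (18-20 h; final DMSO 0.1%), then fixed in 4% PFA, permeabilized with Triton X-100 and blocked. BRM was detected by in-cell Western using 800 nm anti-rabbit and 680 nm anti-mouse secondaries, and Dmax and DC50 were derived from the LI-COR Odyssey signal.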
# T1 sequence (P51531 whole entry): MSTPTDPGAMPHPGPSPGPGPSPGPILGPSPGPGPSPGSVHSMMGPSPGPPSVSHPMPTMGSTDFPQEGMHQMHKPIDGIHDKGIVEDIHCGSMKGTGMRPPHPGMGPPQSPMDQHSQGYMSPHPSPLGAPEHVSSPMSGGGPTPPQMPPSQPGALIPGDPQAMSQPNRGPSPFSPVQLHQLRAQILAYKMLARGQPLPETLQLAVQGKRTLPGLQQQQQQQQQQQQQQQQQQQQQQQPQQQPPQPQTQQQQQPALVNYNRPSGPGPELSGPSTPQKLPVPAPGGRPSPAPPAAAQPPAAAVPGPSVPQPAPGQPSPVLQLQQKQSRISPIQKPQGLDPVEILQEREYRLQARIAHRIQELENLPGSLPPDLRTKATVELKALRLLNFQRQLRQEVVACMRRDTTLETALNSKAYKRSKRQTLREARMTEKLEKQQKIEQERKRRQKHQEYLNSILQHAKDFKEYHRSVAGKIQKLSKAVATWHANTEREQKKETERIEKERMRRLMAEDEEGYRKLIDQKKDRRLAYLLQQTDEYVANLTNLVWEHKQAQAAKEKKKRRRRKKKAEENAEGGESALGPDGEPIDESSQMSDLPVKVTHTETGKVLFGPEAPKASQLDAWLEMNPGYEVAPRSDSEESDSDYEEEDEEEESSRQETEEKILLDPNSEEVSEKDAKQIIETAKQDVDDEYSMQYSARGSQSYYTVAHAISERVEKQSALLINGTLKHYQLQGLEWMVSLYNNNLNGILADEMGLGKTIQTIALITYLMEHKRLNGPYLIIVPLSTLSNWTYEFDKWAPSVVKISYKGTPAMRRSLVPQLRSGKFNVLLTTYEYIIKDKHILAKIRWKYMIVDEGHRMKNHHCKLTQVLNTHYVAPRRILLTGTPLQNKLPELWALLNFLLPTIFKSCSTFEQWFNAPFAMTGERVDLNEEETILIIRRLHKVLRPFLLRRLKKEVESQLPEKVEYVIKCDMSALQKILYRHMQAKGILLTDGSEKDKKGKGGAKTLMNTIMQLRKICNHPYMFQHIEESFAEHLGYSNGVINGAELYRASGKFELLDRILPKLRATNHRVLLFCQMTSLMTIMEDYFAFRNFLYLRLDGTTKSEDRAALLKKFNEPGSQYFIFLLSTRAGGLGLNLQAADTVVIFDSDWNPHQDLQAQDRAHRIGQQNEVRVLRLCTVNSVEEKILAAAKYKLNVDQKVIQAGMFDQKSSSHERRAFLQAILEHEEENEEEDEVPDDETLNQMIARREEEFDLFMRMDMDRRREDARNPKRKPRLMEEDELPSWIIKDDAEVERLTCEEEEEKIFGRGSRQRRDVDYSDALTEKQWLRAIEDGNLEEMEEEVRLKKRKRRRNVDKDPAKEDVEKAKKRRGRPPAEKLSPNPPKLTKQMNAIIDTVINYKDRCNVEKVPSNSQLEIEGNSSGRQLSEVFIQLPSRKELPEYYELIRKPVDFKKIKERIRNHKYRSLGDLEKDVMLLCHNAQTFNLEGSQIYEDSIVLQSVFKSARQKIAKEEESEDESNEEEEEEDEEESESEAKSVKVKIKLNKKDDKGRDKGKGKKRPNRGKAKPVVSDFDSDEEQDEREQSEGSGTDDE
SMILES,DC50 [nM],Dmax [%]
"Cc1ncsc1-c1ccc([C@H](C)NC(=O)[C@@H]2C[C@@H](O)CN2C(=O)[C@@H](NC(=O)Cc2ccc(N3CCN(CCO[C@H]4C[C@H](Oc5cc(N6C7CCC6CN(c6cc(-c8ccccc8O)nnc6N)C7)ccn5)C4)CC3)nc2)C(C)(C)C)cc1 [compound 58, (2S,4R)-1-((2S)-2-(2-(6-(4-(2-((1r,3r)-3-((4-(3-(3-amino-6-(2-hydroxyphenyl)pyridazin-4-yl)-3,8-diazabicyclo[3.2.1]octan-8-yl)pyridin-2-yl)oxy)cyclobutoxy)ethyl)piperazin-1-yl)pyridin-3-yl)acetamido)-3,3-dimethylbutanoyl)-4-hydroxy-N-((S)-1-(4-(4-methylthiazol-5-yl)phenyl)ethyl)pyrrolidine-2-carboxamide]",> 30,50 to 75
"Cc1ncsc1-c1ccc([C@H](C)NC(=O)[C@@H]2C[C@@H](O)CN2C(=O)[C@H](c2cc(OCCCc3ccc(C(C)n4cc(-c5cc(-c6ccccc6O)nnc5N)cn4)cc3)no2)C(C)C)cc1 (stereo partly drawn) [compound 59, (2S,4R)-1-((2S)-2-(3-(3-(4-(1-(4-(3-amino-6-(2-hydroxyphenyl)pyridazin-4-yl)-1H-pyrazol-1-yl)ethyl)phenyl)propoxy)isoxazol-5-yl)-3-methylbutanoyl)-4-hydroxy-N-((S)-1-(4-(4-methylthiazol-5-yl)phenyl)ethyl)pyrrolidine-2-carboxamide]",> 30,> 75
"Cc1ncsc1-c1ccc([C@H](C)NC(=O)[C@@H]2C[C@@H](O)CN2C(=O)[C@@H](c2cc(OCCCc3ccc(C(C)n4cc(-c5cc(-c6ccccc6O)nnc5N)cn4)cc3)no2)C(C)C)cc1 (stereo partly drawn) [compound 60, (2S,4R)-1-((2R)-2-(3-(3-(4-(1-(4-(3-amino-6-(2-hydroxyphenyl)pyridazin-4-yl)-1H-pyrazol-1-yl)ethyl)phenyl)propoxy)isoxazol-5-yl)-3-methylbutanoyl)-4-hydroxy-N-((S)-1-(4-(4-methylthiazol-5-yl)phenyl)ethyl)pyrrolidine-2-carboxamide]",< 2.5,> 75
"Cc1ncsc1-c1ccc([C@H](C)NC(=O)[C@@H]2C[C@@H](O)CN2C(=O)[C@@H](NC(=O)COCCCc2ccc(C(C)n3cc(-c4cc(-c5ccccc5O)nnc4N)cn3)cn2)C(C)(C)C)cc1 (stereo partly drawn) [compound 61, (2S,4R)-1-((2S)-2-(2-(3-(5-(1-(4-(3-amino-6-(2-hydroxyphenyl)pyridazin-4-yl)-1H-pyrazol-1-yl)ethyl)pyridin-2-yl)propoxy)acetamido)-3,3-dimethylbutanoyl)-4-hydroxy-N-((S)-1-(4-(4-methylthiazol-5-yl)phenyl)ethyl)pyrrolidine-2-carboxamide]",10 to 30,> 75
"Cc1ncsc1-c1ccc([C@H](C)NC(=O)[C@@H]2C[C@@H](O)CN2C(=O)[C@@H](c2cc(OCCN3CCN(CCOCCn4cc(-c5cc(-c6ccccc6O)nnc5N)cn4)CC3)no2)C(C)C)cc1 [compound 62, (2S,4R)-1-((R)-2-(3-(2-(4-(2-(2-(4-(3-amino-6-(2-hydroxyphenyl)pyridazin-4-yl)-1H-pyrazol-1-yl)ethoxy)ethyl)piperazin-1-yl)ethoxy)isoxazol-5-yl)-3-methylbutanoyl)-4-hydroxy-N-((S)-1-(4-(4-methylthiazol-5-yl)phenyl)ethyl)pyrrolidine-2-carboxamide]",2.5 to 10,> 75
"Cc1ncsc1-c1ccc([C@H](C)NC(=O)[C@@H]2C[C@@H](O)CN2C(=O)[C@H](c2cc(OCCOCCOCCCCN3CC4(C3)CN(c3cc(-c5ccccc5O)nnc3N)C4)no2)C(C)C)cc1 [compound 65, (2S,4R)-1-((S)-2-(3-(2-(2-(4-(6-(3-amino-6-(2-hydroxyphenyl)pyridazin-4-yl)-2,6-diazaspiro[3.3]heptan-2-yl)butoxy)ethoxy)ethoxy)isoxazol-5-yl)-3-methylbutanoyl)-4-hydroxy-N-((S)-1-(4-(4-methylthiazol-5-yl)phenyl)ethyl)pyrrolidine-2-carboxamide]",> 30,–
"Cc1ncsc1-c1ccc([C@H](C)NC(=O)[C@@H]2C[C@@H](O)CN2C(=O)[C@@H](c2cc(OCCOCCOCCCCN3CC4(C3)CN(c3cc(-c5ccccc5O)nnc3N)C4)no2)C(C)C)cc1 [compound 66, (2S,4R)-1-((R)-2-(3-(2-(2-(4-(6-(3-amino-6-(2-hydroxyphenyl)pyridazin-4-yl)-2,6-diazaspiro[3.3]heptan-2-yl)butoxy)ethoxy)ethoxy)isoxazol-5-yl)-3-methylbutanoyl)-4-hydroxy-N-((S)-1-(4-(4-methylthiazol-5-yl)phenyl)ethyl)pyrrolidine-2-carboxamide]",> 30,> 75
"Cc1ncsc1-c1ccc([C@H](C)NC(=O)[C@@H]2C[C@@H](O)CN2C(=O)[C@H](c2cc(OCCOCCOCCCCN3CCC4(CC3)CCN(c3cc(-c5ccccc5O)nnc3N)CC4)no2)C(C)C)cc1 [compound 67, (2S,4R)-1-((S)-2-(3-(2-(2-(4-(9-(3-amino-6-(2-hydroxyphenyl)pyridazin-4-yl)-3,9-diazaspiro[5.5]undecan-3-yl)butoxy)ethoxy)ethoxy)isoxazol-5-yl)-3-methylbutanoyl)-4-hydroxy-N-((S)-1-(4-(4-methylthiazol-5-yl)phenyl)ethyl)pyrrolidine-2-carboxamide]",> 30,–
"Cc1ncsc1-c1ccc([C@H](C)NC(=O)[C@@H]2C[C@@H](O)CN2C(=O)[C@@H](c2cc(OCCOCCOCCCCN3CCC4(CC3)CCN(c3cc(-c5ccccc5O)nnc3N)CC4)no2)C(C)C)cc1 [compound 68, (2S,4R)-1-((R)-2-(3-(2-(2-(4-(9-(3-amino-6-(2-hydroxyphenyl)pyridazin-4-yl)-3,9-diazaspiro[5.5]undecan-3-yl)butoxy)ethoxy)ethoxy)isoxazol-5-yl)-3-methylbutanoyl)-4-hydroxy-N-((S)-1-(4-(4-methylthiazol-5-yl)phenyl)ethyl)pyrrolidine-2-carboxamide]",2.5 to 10,> 75
"Cc1ncsc1-c1ccc([C@H](C)NC(=O)[C@@H]2C[C@@H](O)CN2C(=O)[C@H](c2cc(OCC#Cc3ccc(O[C@H]4C[C@H](Oc5cc(N6C7CCC6CN(c6cc(-c8ccccc8O)nnc6N)C7)ccn5)C4)cn3)no2)C(C)C)cc1 [compound 69, (2S,4R)-1-((2S)-2-(3-((3-(5-((1r,3S)-3-((4-(3-(3-amino-6-(2-hydroxyphenyl)pyridazin-4-yl)-3,8-diazabicyclo[3.2.1]octan-8-yl)pyridin-2-yl)oxy)cyclobutoxy)pyridin-2-yl)prop-2-yn-1-yl)oxy)isoxazol-5-yl)-3-methylbutanoyl)-4-hydroxy-N-((S)-1-(4-(4-methylthiazol-5-yl)phenyl)ethyl)pyrrolidine-2-carboxamide]",10 to 30,> 75
"Cc1ncsc1-c1ccc([C@H](C)NC(=O)[C@@H]2C[C@@H](O)CN2C(=O)[C@@H](c2cc(OCC#Cc3ccc(O[C@H]4C[C@H](Oc5cc(N6C7CCC6CN(c6cc(-c8ccccc8O)nnc6N)C7)ccn5)C4)cn3)no2)C(C)C)cc1 [compound 70, (2S,4R)-1-((2R)-2-(3-((3-(5-((1r,3R)-3-((4-(3-(3-amino-6-(2-hydroxyphenyl)pyridazin-4-yl)-3,8-diazabicyclo[3.2.1]octan-8-yl)pyridin-2-yl)oxy)cyclobutoxy)pyridin-2-yl)prop-2-yn-1-yl)oxy)isoxazol-5-yl)-3-methylbutanoyl)-4-hydroxy-N-((S)-1-(4-(4-methylthiazol-5-yl)phenyl)ethyl)pyrrolidine-2-carboxamide]",< 2.5,> 75
"Cc1ncsc1-c1ccc([C@H](C)NC(=O)[C@@H]2C[C@@H](O)CN2C(=O)[C@H](c2cc(OCCOCCOCCCCN3CC4(CCN(c5cc(-c6ccccc6O)nnc5N)CC4)C3)no2)C(C)C)cc1 [compound 71, (2S,4R)-1-((S)-2-(3-(2-(2-(4-(7-(3-amino-6-(2-hydroxyphenyl)pyridazin-4-yl)-2,7-diazaspiro[3.5]nonan-2-yl)butoxy)ethoxy)ethoxy)isoxazol-5-yl)-3-methylbutanoyl)-4-hydroxy-N-((S)-1-(4-(4-methylthiazol-5-yl)phenyl)ethyl)pyrrolidine-2-carboxamide]",> 30,–
"Cc1ncsc1-c1ccc([C@H](C)NC(=O)[C@@H]2C[C@@H](O)CN2C(=O)[C@@H](c2cc(OCCOCCOCCCCN3CC4(CCN(c5cc(-c6ccccc6O)nnc5N)CC4)C3)no2)C(C)C)cc1 [compound 72, (2S,4R)-1-((R)-2-(3-(2-(2-(4-(7-(3-amino-6-(2-hydroxyphenyl)pyridazin-4-yl)-2,7-diazaspiro[3.5]nonan-2-yl)butoxy)ethoxy)ethoxy)isoxazol-5-yl)-3-methylbutanoyl)-4-hydroxy-N-((S)-1-(4-(4-methylthiazol-5-yl)phenyl)ethyl)pyrrolidine-2-carboxamide]",10 to 30,> 75
"Cc1ncsc1-c1ccc([C@H](C)NC(=O)[C@@H]2C[C@@H](O)CN2C(=O)[C@H](c2cc(OCCOCCOCCCCN3CCC4(CCN(c5cc(-c6ccccc6O)nnc5N)CC4)C3)no2)C(C)C)cc1 [compound 73, (2S,4R)-1-((S)-2-(3-(2-(2-(4-(8-(3-amino-6-(2-hydroxyphenyl)pyridazin-4-yl)-2,8-diazaspiro[4.5]decan-2-yl)butoxy)ethoxy)ethoxy)isoxazol-5-yl)-3-methylbutanoyl)-4-hydroxy-N-((S)-1-(4-(4-methylthiazol-5-yl)phenyl)ethyl)pyrrolidine-2-carboxamide]",> 30,–
"Cc1ncsc1-c1ccc([C@H](C)NC(=O)[C@@H]2C[C@@H](O)CN2C(=O)[C@@H](c2cc(OCCOCCOCCCCN3CCC4(CCN(c5cc(-c6ccccc6O)nnc5N)CC4)C3)no2)C(C)C)cc1 [compound 74, (2S,4R)-1-((R)-2-(3-(2-(2-(4-(8-(3-amino-6-(2-hydroxyphenyl)pyridazin-4-yl)-2,8-diazaspiro[4.5]decan-2-yl)butoxy)ethoxy)ethoxy)isoxazol-5-yl)-3-methylbutanoyl)-4-hydroxy-N-((S)-1-(4-(4-methylthiazol-5-yl)phenyl)ethyl)pyrrolidine-2-carboxamide]",10 to 30,> 75
